We go through three compounds from patent US11904051B2, “Shear stress sensitive liposomes” (Universität Basel, priority 2018, dated 2024).

Data set [1] can be described thus: Small-angle neutron scattering (SANS) of liposomes as a function of temperature. Also on record: key to Eccentricity: ε = c/R axis ratio; <1 oblate, 1 spherical, >1 prolate. The data set is classed as physicochemical. The source says: In order to determine the structural parameters, including the bilayer thickness of the selected liposomal formulations, a suitable model for data fitting has to be identified. […] The structure factor was fitted using the sticky hard sphere model (Baxter et al., The Journal of Chemical Physics 1968, 49 (6), 2770-2774; Mays, Langmuir 1989, 5, 422-428). In order to adjust the form factor to the overall shape of the liposomes, an ellipsoidal shell model with a homogeneous cross-section (Guinier, Annales de Physique, 1939; pp 161-237) was applied. The elliptical shell model is defined by three orthogonal axes with lengths a=R, b=R and c=εR, along with eccentricity ε>0, (ε<1: oblate, ε=1: spherical, ε>1: prolate). The model also accounts for variations in bilayer thickness and liposome size. As the scattering data of the Pad-PC-Pad liposomes at the temperature of 35° C. could not be approximated satisfactorily by means of the ellipsoidal shell, the inventors included disks with a homogeneous cross-section—an approach motivated by the cryo-TEM results. Together with the experimental data of the Pad-PC-Pad liposomes at three selected temperatures, the obtained fits are represented in FIG. 23.
The inventors recognised that the inhomogeneity of the liposomal formulations, except for Pad-PC-Pad, concerning the shape and size of the artificial lipids in this study only allows for the reasonable fitting of the q-range, which corresponds to bilayer thickness. For this purpose, the inventors applied an extended Guinier law (Hjelm et al., The Journal of Physical Chemistry B 2000, 104 (2), 197-211; Fratzl, Journal of Statistical Physics 1994, 77 (1-2), 125-143), which yields the thickness of the bilayer. To account for possible multi-lamellarity, the inventors included a para-crystalline stacking model (Schwartz et al., Biophysical journal 1975, 15 (12), 1201-1233; FruÈhwirth et al., Journal of Applied Crystallography 2004, 37 (5), 703-710) as a structure factor.
SANS measurements were performed at the SANS-I beamline at the Swiss Spallation Neutron Source SINQ facility (Paul Scherrer Institute, Villigen, Switzerland). The samples were loaded into 2 mm-path length, boron-free quartz glass cells and mounted in a temperature-controlled holder. This system allows for controlling the temperature of the specimen with an accuracy better than 1 K. The liposomal suspensions were measured between 22 and 42° C. in 3 to 4 K steps. Subsequently, the suspensions were cooled down to room temperature (22° C.) and measured again. Three detector distances, i.e. 1.6, 6.0 and 18.0 m, were used to collect data over the range of scattering vectors 0.01 nm^−1<q<10 nm^−1 at the neutron wavelengths (A) […]. Data were collected with a two-dimensional ^3He-detector with an array of 128×128 pixels and reduced to one-dimensional I(q) scattering curves, thus radially averaging the two-dimensional images. The data were corrected for transmission, background scattering and detector efficiency according to a standard procedure using the BerSANS software package (Keiderling, Applied Physics A 2002, 74 (1), s1455-s1457; Strunz et al., Journal of Applied Crystallography 2000, 33 (3 Part 1), 829-833).
The SANS data were analysed using SASfit software (Breßler et al., Journal of Applied Crystallography 2015, 48 (5), 1587-1598) and corresponding models. A Pad-PC-Pad sample was fitted over the entire measured q-range, whereas we restricted the fit for the other samples to the q-range, which corresponds to lipid bilayer thickness. For Pad-PC-Pad, the inventors used an ellipsoidal shell model with a homogeneous cross-section (Guinier, Annales de Physique, 1939; pp 161-237) and size distributions in terms of both thickness and radius. […]

Data set [2] can be described thus: Cryo-TEM of liposomal suspensions of the SANS study. Format: physicochemical. The protocol: The liposomal suspensions were diluted at a ratio of 1:2 with D2O, to a final concentration of 5 mg/mL. Next, 4 μL aliquots of each suspension were adsorbed onto a holey carbon-coated grid (Lacey, Tedpella, USA), blotted with Whatman 1 filter paper and vitrified into liquid ethane at a temperature of −178° C., using a Leica GP plunger (Leica, Austria). Frozen grids were transferred onto a Talos electron microscope (Thermo Fisher, USA), using a Gatan 626 cryo-holder. Electron micrographs were recorded at an accelerating voltage of 200 kV and a nominal magnification of 45,000×, using a low-dose system (20 e^−/Å^2) and keeping the sample at liquid nitrogen temperature. Micrographs were recorded on the CETA camera. Pixel size at the sample level was (3.26 Å)^2.

For data set [3] the following is noted: reported previously; cited from earlier work.
A short description of data set [4]: Cryo-TEM of large unilamellar vesicles made of Rad-PC-Rad. Format: physicochemical. Conditions: 509 membrane cuts in cryo-TEM image. As for the experimental part: The inventors measured the cryo-TEM images according to a previously described protocol (Ishikawa et al, J. Mol. Biol. 2007, 368 (5), 1249-1258). The cryo-TEM images recorded from large unilamellar vesicles (LUV) entirely made of Rad-PC-Rad, show a significant number of strongly facetted shapes below the membranes' main phase transition temperature of the membranes (Tm≈45° C.) (FIGS. 6 and 7). The ratio between facetted and spherical vesicles calculated from FIG. 6 is 21:4.
The interdigitation of the leaflets in a membrane can be directly measured from lateral cuts through the membrane in the cryo-TEM image (FIG. 6). To collect statistically relevant data, the inventors measured 509 membrane cuts (FIG. 6) with a mean membrane thickness of 3.20 nm±0.02 nm (N=509). With two times 0.7 nm for the headgroups, the hydrophobic layer is 1.8 nm thick. An all-trans alkyl chain of 16 C-atoms has a length of 2.05 nm. Thus, the alkyl chains would have a tilt angle of 64°, which is physically absurd. Therefore, a full bilayer interdigitation can be assumed.

Setting [5] is: 22 ° C. (after cooling down to room temperature).
The mark [6] stands for this setting: 35 ° C., contribution for disks accounted for.

Consider `CCCCCCCCCCCCCCCC(=O)OC[C@H](COP(=O)([O-])OCC[N+](C)(C)C)OC(=O)CCCCCCCCCCCCCCC` [DPPC, 1,2-dipalmitoyl-sn-glycero-3-phosphocholine], for which the most probable bilayer thickness amounted to 4.59 nm in data set [1] (22 ° C.); 4.67 nm in data set [1] (setting [5]); 4.58 nm in data set [1] (25 ° C.); 4.62 nm in data set [1] (28 ° C.); 4.61 nm in data set [1] (32 ° C.); 4.61 nm in data set [1] (35 ° C.). For the same compound, the most probable bilayer thickness in data set [1] (39 ° C.) and in data set [1] (42 ° C.) was 4.65 nm each time. Also, the “mean size of liposomes derived from cryo-TEM images” value in data set [2] (after SANS heat treatment and eight months' storage) was 87±20 nm. In addition, the multi-lamellar liposomes entry in data set [2] (determined by cryo-TEM) is “About 16%”. Further, in data set [3], the “Tm, main phase transition temperature” value was 41 °C.
For the compound `CCCCCCCCCCCCCCCCC(=O)NCC(CNC(=O)CCCCCCCCCCCCCCCC)OP(=O)([O-])OCC[N+](C)(C)C` [Rad-PC-Rad, 1,3-diheptadecanamidopropan-2-yl (2-(trimethylammonio)ethyl) phosphate], the most probable bilayer thickness in data set [1] (22 ° C.) amounted to 4.55 nm; in data set [1] (setting [5]), 4.45 nm; in data set [1] (25 ° C.), 4.57 nm; in data set [1] (28 ° C.) it was 4.55 nm; in data set [1] (32 ° C.) it was 4.51 nm; in data set [1] (35 ° C.), 4.45 nm. In addition, the figures for the most probable bilayer thickness in data set [1] (39 ° C.) and in data set [1] (42 ° C.) were 4.35 nm and 4.4 nm, respectively. In addition, the “thermal stability of liposomes” value in data set [1] (temperature range between 22 and 42° C.) was “thermally stable up to 42 °C”. The compound also yielded a mean membrane thickness in data set [4] of 3.20 nm. Further, the “Tm, main phase transition temperature” value in data set [3] was 45 °C.
Turning to `CCCCCCCCCCCCCCCC(=O)NCC(CNC(=O)CCCCCCCCCCCCCCC)OP(=O)([O-])OCC[N+](C)(C)C` [Pad-PC-Pad, 1,3-palmitoylamido-1,3-deoxy-sn-glycero-2-phosphatidylcholine], the Bilayer thickness in data set [1] (22 ° C.) is 3.46 ± 1.07 nm; in data set [1] (setting [5]), 4.18 ± 0.70 nm; in data set [1] (25 ° C.), 3.38 ± 0.94 nm; in data set [1] (28 ° C.), 3.34 ± 0.91 nm; in data set [1] (32 ° C.), 3.37 ± 0.89 nm; in data set [1] (setting [6]) it was 3.42 ± 0.88 nm. Moreover, the Bilayer thickness in data set [1] (39 ° C.) worked out at 3.37 ± 0.76 nm; in data set [1] (42 ° C.), 3.57 ± 0.74 nm. Moreover, the Eccentricity in data set [1] (22 ° C.) is 0.35; in data set [1] (setting [5]), 0.04; in data set [1] (25 ° C.), 0.35; in data set [1] (28 ° C.), 0.32; in data set [1] (32 ° C.), 0.31; in data set [1] (setting [6]), 0.88. For the same compound, the Eccentricity in data set [1] (39 ° C.) was 0.04; in data set [1] (42 ° C.), 0.05. The Radius in data set [1] (22 ° C.) turned out to be 69.96 ± 19.05 nm; in data set [1] (setting [5]), 70.41 ± 31.77 nm; in data set [1] (25 ° C.), 66.22 ± 21.15 nm; in data set [1] (28 ° C.), 69.96 ± 16.31 nm; in data set [1] (32 ° C.), 69.90 ± 15.93 nm; in data set [1] (setting [6]), 64.91 nm. The Radius in data set [1] (39 ° C.) is 71.96 ± 5.40 nm; in data set [1] (42 ° C.) it was 71.35 ± 5.01 nm. Besides, in data set [1] (temperature cycle to 42° C. including cooling to room temperature), the “increase in bilayer thickness after the heating cycle” value came out at 21%. In addition, the “diameter of flattened liposomes and/or bicelles (cryo-TEM)” value in data set [2] (heated above Tm) is reported as “about 50 nm”. Besides, the “average size of liposomes estimated from cryo-TEM images” value in data set [2] (not heated above transition temperature) was 92±14 nm. In data set [3], the “Tm, main phase transition temperature” value is 37 °C.
